Values after ≈ are worked out from the molar mass of the structure shown. Read-outs that look alike come from different tables or passages of the source.
How the values were obtained:
Solubility in PBS = assay type: physicochemical
Procedure, shortened: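 Read-out is the HPLC peak area of the supernatant from ultracentrifuged PBS solution, scaled against a 50 μM peptide DMSO injection; value reported as [(PBS area)/(DMSO area)]*50 uM.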

CHI Log D procedure = assay type: physicochemical; conditions: pH 7.4
[1] = biological target: T1, full-length beta-Catenin (Uniprot ID P35222) (Homo sapiens, UniProt P35222); experiment: Fluorescence polarization IC50 (beta-catenin / 5FAM-TCF4 10-53 competition); assay type: binding
T1 construct: 10 nM full-length beta-Catenin (Uniprot ID P35222)
T1 sequence (P35222 1-781): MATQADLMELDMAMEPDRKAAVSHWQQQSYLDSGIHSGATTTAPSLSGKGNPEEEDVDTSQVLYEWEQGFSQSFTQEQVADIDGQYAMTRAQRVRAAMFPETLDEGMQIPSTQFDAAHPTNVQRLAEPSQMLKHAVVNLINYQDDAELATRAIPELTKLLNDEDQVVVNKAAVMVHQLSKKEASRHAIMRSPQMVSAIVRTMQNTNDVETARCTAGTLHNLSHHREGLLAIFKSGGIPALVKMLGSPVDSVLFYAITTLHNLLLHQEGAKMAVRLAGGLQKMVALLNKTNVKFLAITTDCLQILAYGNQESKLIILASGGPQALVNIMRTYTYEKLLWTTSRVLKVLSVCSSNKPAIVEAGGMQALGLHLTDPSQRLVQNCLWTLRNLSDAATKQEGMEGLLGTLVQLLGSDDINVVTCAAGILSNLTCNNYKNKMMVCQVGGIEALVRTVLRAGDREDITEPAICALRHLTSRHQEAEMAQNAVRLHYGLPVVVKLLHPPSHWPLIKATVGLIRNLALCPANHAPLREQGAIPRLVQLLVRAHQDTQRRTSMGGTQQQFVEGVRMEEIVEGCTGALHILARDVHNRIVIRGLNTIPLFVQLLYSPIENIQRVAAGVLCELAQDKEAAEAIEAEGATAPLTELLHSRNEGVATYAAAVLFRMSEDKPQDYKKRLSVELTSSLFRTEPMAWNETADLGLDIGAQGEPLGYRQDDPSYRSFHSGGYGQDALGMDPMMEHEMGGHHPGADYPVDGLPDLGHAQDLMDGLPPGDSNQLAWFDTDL

[2] = fluorescence polarization, beta-catenin, read-out: FP EC50

SMILES	Solubility (Solubility in PBS) [µM]	CHI Log D (CHI Log D procedure)	IC50 [1, 2] [nM]	IC50 ([1]; read-out: beta-Catenin FP IC50) [nM]
CC(=O)N1CCC[C@]12CC=CCCCC1(CCCC=CCCCOC(=O)N3CC[C@@](C(=O)N[C@@H](Cc4ccsc4)C(=O)N[C@@H](Cc4csc5ccccc45)C(=O)N[C@@H](C(N)=O)[C@H](C)O)(C3)NC(=O)[C@H](CC(N)=O)NC(=O)[C@H](Cc3ccccc3)NC(=O)[C@H](C)NC(=O)[C@H](C)NC(=O)[C@H](CN(CC(=O)O)CC(F)(F)F)NC(=O)[C@H](CC(=O)O)NC1=O)NC(=O)[C@H](CC(C)(C)C)NC(=O)[C@H](CC(=O)O)NC2=O (stereo partly drawn) [I-948, Ac-PL3-Asp-Npg-B5-Asp-TfeGA-Ala-Ala-Phe-Asn-PyrS2-3Thi-BztA-dThr-NH2]	47 (≈ 94.1 µg/mL)	2.013	2430	2430
CC(=O)N1CCC[C@]12CC=CCCCC1(CCCC=CCCCOC(=O)N3CC[C@@](C(=O)N[C@@H](Cc4ccsc4)C(=O)N[C@@H](Cc4csc5ccccc45)C(=O)N[C@@H](C(N)=O)[C@H](C)O)(C3)NC(=O)[C@H](CC(N)=O)NC(=O)[C@H](Cc3ccccc3)NC(=O)[C@H](C)NC(=O)[C@H](C)NC(=O)[C@H](CN(CC(=O)O)CC(F)(F)F)NC(=O)[C@H](CC(=O)O)NC1=O)NC(=O)[C@H](CC(C)(C)C)NC(=O)[C@H](CC(=O)O)NC2=O (stereo partly drawn) [I-949, Ac-PL3-Asp-Npg-B5-Asp-TfeGA-Ala-Ala-Phe-Asn-PyrS2-3Thi-BztA-dThr-NH2]	49 (≈ 98.1 µg/mL)	2.086	2260	2260
CC(=O)N1CCC[C@]12CC=CCCCC1(CCCC=CCCCOC(=O)N3CC[C@@](C(=O)N[C@@H](Cc4ccsc4)C(=O)N[C@@H](Cc4csc5ccccc45)C(=O)N[C@@H](CCO)C(N)=O)(C3)NC(=O)[C@H](CC(N)=O)NC(=O)[C@H](Cc3ccccc3)NC(=O)[C@H](C)NC(=O)[C@H](C)NC(=O)[C@H](CN(CC(=O)O)CC(F)(F)F)NC(=O)[C@H](CC(=O)O)NC1=O)NC(=O)[C@H](CC(C)(C)C)NC(=O)[C@H](CC(=O)O)NC2=O (stereo partly drawn) [I-950, Ac-PL3-Asp-Npg-B5-Asp-TfeGA-Ala-Ala-Phe-Asn-PyrS2-3Thi-BztA-Hse-NH2]	46 (≈ 92.1 µg/mL)	1.9	1630	1630
CC(=O)N1CCC[C@]12CC=CCCCC1(CCCC=CCCCOC(=O)N3CC[C@@](C(=O)N[C@@H](Cc4ccsc4)C(=O)N[C@@H](Cc4csc5ccccc45)C(=O)N[C@@H](CCO)C(N)=O)(C3)NC(=O)[C@H](CC(N)=O)NC(=O)[C@H](Cc3ccccc3)NC(=O)[C@H](C)NC(=O)[C@H](C)NC(=O)[C@H](CN(CC(=O)O)CC(F)(F)F)NC(=O)[C@H](CC(=O)O)NC1=O)NC(=O)[C@H](CC(C)(C)C)NC(=O)[C@H](CC(=O)O)NC2=O (stereo partly drawn) [I-951, Ac-PL3-Asp-Npg-B5-Asp-TfeGA-Ala-Ala-Phe-Asn-PyrS2-3Thi-BztA-Hse-NH2]	47 (≈ 94.1 µg/mL)	1.971	1470	1470
CC(=O)N1CCC[C@]12CC=CCCCC1(CCCC=CCCCOC(=O)N3CC[C@@](C(=O)N[C@@H](Cc4ccsc4)C(=O)N[C@@H](Cc4csc5ccccc45)C(=O)N[C@@H](Cc4ccc(O)cc4)C(N)=O)(C3)NC(=O)[C@H](CC(N)=O)NC(=O)[C@H](Cc3ccccc3)NC(=O)[C@H](C)NC(=O)[C@H](C)NC(=O)[C@H](CN(CC(=O)O)CC(F)(F)F)NC(=O)[C@H](CC(=O)O)NC1=O)NC(=O)[C@H](CC(C)(C)C)NC(=O)[C@H](CC(=O)O)NC2=O (stereo partly drawn) [I-953, Ac-PL3-Asp-Npg-B5-Asp-TfeGA-Ala-Ala-Phe-Asn-PyrS2-3Thi-BztA-Tyr-NH2]	47 (≈ 97 µg/mL)	2.04	1460	1460
CC(=O)N1CCC[C@]12CC=CCCCC1(CCCC=CCCCOC(=O)N3CC[C@@](C(=O)N[C@@H](Cc4ccsc4)C(=O)N[C@@H](Cc4csc5ccccc45)C(=O)N[C@@H](CO)C(N)=O)(C3)NC(=O)[C@H](CO)NC(=O)[C@H](Cc3ccccc3)NC(=O)[C@H](C)NC(=O)[C@H](C)NC(=O)[C@H](CN(CC(=O)O)CC(F)(F)F)NC(=O)[C@H](CC(=O)O)NC1=O)NC(=O)[C@H](CC(C)(C)C)NC(=O)[C@H](CC(=O)O)NC2=O (stereo partly drawn) [I-955, Ac-PL3-Asp-Npg-B5-Asp-TfeGA-Ala-Ala-Phe-Ser-PyrS2-3Thi-BztA-Ser-NH2]	45 (≈ 88.3 µg/mL)	1.998	1200	1200
CC(=O)N1CCC[C@]12CC=CCCCC1(CCCC=CCCCOC(=O)N3CC[C@@](C(=O)N[C@@H](Cc4ccsc4)C(=O)N[C@@H](Cc4csc5ccccc45)C(=O)N[C@@H](CO)C(N)=O)(C3)NC(=O)[C@H]([C@@H](C)O)NC(=O)[C@H](Cc3ccccc3)NC(=O)[C@H](C)NC(=O)[C@H](C)NC(=O)[C@H](CN(CC(=O)O)CC(F)(F)F)NC(=O)[C@H](CC(=O)O)NC1=O)NC(=O)[C@H](CC(C)(C)C)NC(=O)[C@H](CC(=O)O)NC2=O (stereo partly drawn) [I-957, Ac-PL3-Asp-Npg-B5-Asp-TfeGA-Ala-Ala-Phe-Thr-PyrS2-3Thi-BztA-Ser-NH2]	46 (≈ 90.9 µg/mL)	−0.043	1430	1430

The next molecules have a lower IC50 [1, 2] than those just listed; values first:

Solubility (Solubility in PBS) [µM]	CHI Log D (CHI Log D procedure)	IC50 [1, 2] [nM]	IC50 ([1]; read-out: beta-Catenin FP IC50) [nM]	SMILES
46 (≈ 90.9 µg/mL)	1.875	1090	1090	CC(=O)N1CCC[C@]12CC=CCCCC1(CCCC=CCCCOC(=O)N3CC[C@@](C(=O)N[C@@H](Cc4ccsc4)C(=O)N[C@@H](Cc4csc5ccccc45)C(=O)N[C@@H](CO)C(N)=O)(C3)NC(=O)[C@H]([C@@H](C)O)NC(=O)[C@H](Cc3ccccc3)NC(=O)[C@H](C)NC(=O)[C@H](C)NC(=O)[C@H](CN(CC(=O)O)CC(F)(F)F)NC(=O)[C@H](CC(=O)O)NC1=O)NC(=O)[C@H](CC(C)(C)C)NC(=O)[C@H](CC(=O)O)NC2=O (stereo partly drawn) [I-956, Ac-PL3-Asp-Npg-B5-Asp-TfeGA-Ala-Ala-Phe-Thr-PyrS2-3Thi-BztA-Ser-NH2]
47 (≈ 94.7 µg/mL)	2.271	1050	1050	CC(=O)N1CCC[C@]12CC=CCCCC1(CCCC=CCCCOC(=O)N3CC[C@@](C(=O)N[C@@H](Cc4ccsc4)C(=O)N[C@@H](Cc4csc5ccccc45)C(=O)N[C@@H](CC(C)C)C(N)=O)(C3)NC(=O)[C@H](CC(N)=O)NC(=O)[C@H](Cc3ccccc3)NC(=O)[C@H](C)NC(=O)[C@H](C)NC(=O)[C@H](CN(CC(=O)O)CC(F)(F)F)NC(=O)[C@H](CC(=O)O)NC1=O)NC(=O)[C@H](CC(C)(C)C)NC(=O)[C@H](CC(=O)O)NC2=O (stereo partly drawn) [I-947, Ac-PL3-Asp-Npg-B5-Asp-TfeGA-Ala-Ala-Phe-Asn-PyrS2-3Thi-BztA-Leu-NH2]
46 (≈ 90.2 µg/mL)	1.918	900	900	CC(=O)N1CCC[C@]12CC=CCCCC1(CCCC=CCCCOC(=O)N3CC[C@@](C(=O)N[C@@H](Cc4ccsc4)C(=O)N[C@@H](Cc4csc5ccccc45)C(=O)N[C@@H](CO)C(N)=O)(C3)NC(=O)[C@H](CO)NC(=O)[C@H](Cc3ccccc3)NC(=O)[C@H](C)NC(=O)[C@H](C)NC(=O)[C@H](CN(CC(=O)O)CC(F)(F)F)NC(=O)[C@H](CC(=O)O)NC1=O)NC(=O)[C@H](CC(C)(C)C)NC(=O)[C@H](CC(=O)O)NC2=O (stereo partly drawn) [I-954, Ac-PL3-Asp-Npg-B5-Asp-TfeGA-Ala-Ala-Phe-Ser-PyrS2-3Thi-BztA-Ser-NH2]
48 (≈ 94.8 µg/mL)	−0.036	881	881	CC(=O)N1CCC[C@]12CC=CCCCC1(CCCC=CCCCOC(=O)N3CC[C@@](C(=O)N[C@@H](Cc4ccsc4)C(=O)N[C@@H](Cc4csc5ccccc45)C(=O)N[C@@H](CO)C(N)=O)(C3)NC(=O)[C@H](CCO)NC(=O)[C@H](Cc3ccccc3)NC(=O)[C@H](C)NC(=O)[C@H](C)NC(=O)[C@H](CN(CC(=O)O)CC(F)(F)F)NC(=O)[C@H](CC(=O)O)NC1=O)NC(=O)[C@H](CC(C)(C)C)NC(=O)[C@H](CC(=O)O)NC2=O (stereo partly drawn) [I-959, Ac-PL3-Asp-Npg-B5-Asp-TfeGA-Ala-Ala-Phe-Hse-PyrS2-3Thi-BztA-Ser-NH2]
47 (≈ 92.8 µg/mL)	1.417	606	606	CC(=O)N1CCC[C@]12CC=CCCCC1(CCCC=CCCCOC(=O)N3CC[C@@](C(=O)N[C@@H](Cc4ccsc4)C(=O)N[C@@H](Cc4csc5ccccc45)C(=O)N[C@@H](CO)C(N)=O)(C3)NC(=O)[C@H](CCO)NC(=O)[C@H](Cc3ccccc3)NC(=O)[C@H](C)NC(=O)[C@H](C)NC(=O)[C@H](CN(CC(=O)O)CC(F)(F)F)NC(=O)[C@H](CC(=O)O)NC1=O)NC(=O)[C@H](CC(C)(C)C)NC(=O)[C@H](CC(=O)O)NC2=O (stereo partly drawn) [I-958, Ac-PL3-Asp-Npg-B5-Asp-TfeGA-Ala-Ala-Phe-Hse-PyrS2-3Thi-BztA-Ser-NH2]

From US20240116985A1, “STAPLED PEPTIDES AND METHODS THEREOF” (priority 2020, published 2024)
